Experimental data reported in ChEMBL document CHEMBL5356979, “Synthesis, antibiofilm activity and molecular docking of N-acylhomoserine lactones containing cinammic moieties” (Bioorg Med Chem Lett, 2024).
Active and inactive are the calls of the source. The rule behind the calls is not given here.

What was measured:
[1] = Inhibition of quorum sensing system in Chromobacterium violaceum assessed as inhibition of violacein secretion by measuring inhibition halo at 50 uM
Klebsiella pneumoniae [2] = experiment: Antibiofilm activity against Klebsiella pneumoniae assessed as inhibition of biofilm formation at 50 uM incubated for 24 hrs by crystal violet staining based analysis relative to control; assay type: functional
Staphylococcus aureus [3] = experiment: Antibiofilm activity against Staphylococcus aureus assessed as inhibition of biofilm formation at 50 uM incubated for 24 hrs by crystal violet staining based analysis relative to control; assay type: functional
Pseudomonas aeruginosa [4] = experiment: Antibacterial activity against Pseudomonas aeruginosa assessed as inhibition of bacterial growth at 50 uM incubated for 24 hrs by microdilution method; assay type: functional, organism-based
[5] = Inhibition of quorum sensing system in Chromobacterium violaceum assessed as inhibition of violacein secretion by measuring inhibition halo at 100 uM
Staphylococcus aureus [6] = experiment: Antibacterial activity against Staphylococcus aureus assessed as inhibition of bacterial growth at 50 uM incubated for 24 hrs by microdilution method; assay type: functional, organism-based
Klebsiella pneumoniae [7] = experiment: Antibacterial activity against Klebsiella pneumoniae assessed as inhibition of bacterial growth at 50 uM incubated for 24 hrs by microdilution method; assay type: functional, organism-based
Pseudomonas aeruginosa [8] = experiment: Antibiofilm activity against Pseudomonas aeruginosa assessed as inhibition of biofilm formation at 50 uM incubated for 24 hrs by crystal violet staining based analysis relative to control; assay type: functional
[9] = Aqueous solubility of compound; assay type: physicochemical; details: buffer
[10] = tested on: Rhodopseudomonas palustris; experiment: Antibiofilm activity against Rhodopseudomonas palustris assessed as inhibition of biofilm formation at 1 uM relative to control; assay type: functional
[11] = Cytotoxicity against green monkey COS-7 cells assessed as inhibition of cell growth at 100 uM relative to control; assay type: toxicity, cell-based; details: chlorocebus aethiops

Row | Compound | inhibition zone (IZ) [1] | inhibition at 50 µM (Klebsiella pneumoniae [2]) | inhibition at 50 µM (Staphylococcus aureus [3]) | Activity (Pseudomonas aeruginosa [4]) | inhibition zone (IZ) [5] | Activity (Staphylococcus aureus [6]) | Activity (Klebsiella pneumoniae [7]) | inhibition at 50 µM (Pseudomonas aeruginosa [8]) | solubility [9] | inhibition at 1 µM [10] | inhibition at 100 µM [11]
1 | O=C(/C=C/c1ccccc1)N[C@H]1CCOC1=O | 1.3 mm | 0% | 18% | inactive | 0.6 mm | inactive | inactive | 29.1% |  |  | 
2 | Cc1ccc(/C=C/C(=O)N[C@H]2CCOC2=O)cc1 | 1.3 mm | 16.9% | 4.4% | inactive | 2 mm | inactive | inactive | 29.8% |  |  | 
3 | O=C(/C=C/c1ccc2c(c1)OCO2)N[C@H]1CCOC1=O |  | 27.1% | 5% | inactive |  | inactive | inactive | 0% | Insoluble |  | 
4 | CC(C)c1ccc(/C=C/C(=O)N[C@H]2CCOC2=O)cc1 |  | 17.9% | 16.1% | inactive |  | inactive | inactive | 23.7% |  |  | 
5 | O=C(/C=C/c1ccc(Cl)cc1)N[C@H]1CCOC1=O |  | 0% | 12% | inactive |  | inactive | inactive | 23.7% |  | 30% | 
6 | O=C(/C=C/c1cccc(F)c1)N[C@H]1CCOC1=O |  | 0% | 0% | inactive |  | inactive | inactive | 0% | Insoluble |  | 
7 | O=C(/C=C/c1ccc(F)cc1)N[C@H]1CCOC1=O |  | 0% | 0% | inactive |  | inactive | inactive | 20.3% |  |  | 
8 | Cn1c(/C=C/C(=O)N[C@H]2CCOC2=O)cc2ccccc21 |  | 0% | 0.5% | inactive |  | inactive | inactive | 0% | Insoluble |  | 
9 | COc1cc(/C=C/C(=O)N[C@H]2CCOC2=O)cc(OC)c1OC | 2.7 mm | 0% | 37.1% | inactive | 3.7 mm | inactive | inactive | 26.9% |  |  | 3.2%
10 | O=C(/C=C/C=C/c1ccccc1)N[C@H]1CCOC1=O | 2.2 mm | 28.3% | 14% | inactive | 2.7 mm | inactive | inactive | 30.2% |  |  | 0%
11 | Cn1cccc1/C=C/C(=O)N[C@H]1CCOC1=O |  | 0% | 0% | inactive |  | inactive | inactive | 0% | Insoluble |  | 
12 | O=C(/C=C/c1cccs1)N[C@H]1CCOC1=O |  | 12.6% | 15.3% | inactive |  | inactive | inactive | 19.6% |  |  | 
13 | COc1cccc(/C=C/C(=O)N[C@H]2CCOC2=O)c1 |  | 22.3% | 27.3% | inactive |  | inactive | inactive | 0% | Insoluble |  | 
14 | CC(C)=CCC/C(C)=C/C(=O)N[C@H]1CCOC1=O |  | 24.5% | 26.5% | inactive |  | inactive | inactive | 25.3% |  |  | 
15 | COc1ccc(/C=C/C(=O)N[C@H]2CCOC2=O)cc1 | 0.6 mm | 12% | 8.49% | inactive | 0.3 mm | inactive | inactive | 35.9% |  |  | 
16 | O=C(/C=C/c1ccc(C(F)(F)F)cc1)N[C@H]1CCOC1=O |  | 30.2% | 2.2% | inactive |  | inactive | inactive | 0% |  |  | 
17 | O=C1C=C(Br)/C(=C/Br)O1 | 1.3 mm | 8.4% | 10.1% |  | 5.1 mm |  |  | 40.2% |  |  | 
18 | O=C(/C=C/c1ccc(-c2ccccc2)cc1)N[C@H]1CCOC1=O |  | 0% | 8.4% | inactive |  | inactive | inactive | 0% | Insoluble |  | 
19 | O=C(/C=C/c1ccco1)N[C@H]1CCOC1=O |  | 0% | 18.2% | inactive |  | inactive | inactive | 24.3% |  |  | 
20 | O=C(/C=C/c1cccnc1)N[C@H]1CCOC1=O |  | 0% | 0% | inactive |  | inactive | inactive | 14.2% |  |  | 
